Source: patent publication US4012395A, “Process for preparing thiazolidinone acetic acid derivatives” (Warner-Lambert Company, priority 1974, dated 1977)

How the values were obtained:
[1] = tested on: diuresis of conscious dogs; assay: Diuresis in conscious dogs, intragastric administration; type: in vivo, dog (unanesthetized adult female Beagle); conditions: for maximal achievable effect on the diuresis (urine excretion): 25.0 mg/kg
Description: Experiments were carried out in 5 unanesthetized adult female Beagle dogs, weighing 15 to 22 kg, which were trained to lie on a table without fixation. The animals were not episiotomized. A rubber catheter was introduced into the bladder and excreted urine was collected separately for each animal and the volume measured in 30 minute intervals. After a constant urine flow was achieved, test substances were administered by stomach tube. The diuretics were diluted with saline solution so that a constant volume of 25 ml/kg was reached. Three animals received the test substances and two served as controls. The lowest dose of the diuretics administered was 1.56 mg/kg. Dosages were increased by a factor of 2 up to 50 mg/kg.

[2] = tested on: urine excreted by each kidney, mongrel dogs; assay: Diuresis in anesthetized dogs, intravenous administration; type: in vivo, dog (male and female mongrel); conditions: i.v.; for urinary excretion / urinary flow increased to: 32.0 mg/kg; for dose dependency of diuretic effect, r: 2.0 up to 64.0 mg/kg
Description: Experiments were performed in male and female mongrel dogs, anesthetized with pentobarbital. The body weight was between 9 and 11 kg. After laparotomy the proximal part of the ureters was canulated and the urine excreted by each kidney collected in periods of 10 minutes. Arterial and venous pressure were recorded throughout the experiment. At the beginning 1.5 ml/kg of a tempered saline solution were infused for one and a half hour. After constant urine-flow was reached, the diuretics were injected into the femoral vein. The initial dose was 2.0 mg/kg which was increased with the factor 2 up to 64.0 mg/kg. Two animals were used for each dose level.

[3] = in vivo; conditions: rat, iv
[4] = tested on: potassium excretion in dogs; assay: Influence on potassium excretion (clearance experiments); type: in vivo, dog; conditions: anesthetized dogs, with higher amounts of sodium excreted
Description: Animals were anesthetized by 30.0 mg/kg pentobarbital intravenously. At the beginning of the experiment one saline solution was infused within 1 hour. In the urine which was collected by using a bladder catheter besides other parameters potassium and sodium concentrations were determined by flame photometry.

[5] = tested on: mice; assay: Acute toxicity in mice, intragastric; type: in vivo, mouse; conditions: aqueous solution, within 48 hours
[6] = tested on: rats; conditions: rat, in vivo
[7] = Toxicity (general statement); conditions: in vivo

| SMILES | maximal achievable effect on the diuresis (urine excretion) [1] [ml/animal/min] | effect of dose increase on urine excretion ([1]; above 25.0 mg/kg) | diuretic activity compared with 3282 [2] | urinary excretion / urinary flow increased to [2] [ml/minute per animal] | dose dependency of diuretic effect, r [2] | LD50 [3] [mg/kg] | increase of potassium excretion, Furosemide versus […] [4] | dosage up to which none of the animals died [5] | dosage up to which no deaths were seen [6] | acute toxicity (in words) [7] |
| --- | --- | --- | --- | --- | --- | --- | --- | --- | --- | --- |
| CCOC(=O)/C=C1\SC(N2CCCCC2)C(=O)N1C (stereo not drawn) [Etozolin, ethyl-3-methyl-4-oxo-5-piperidino-Δ^2,α -thiazolidineacetate] | 7.8 | does not result in a further increase of urine excretion | far less active | 2.25 | 0.5583 | 56.6 | – | – | – | – |
| CN1C(=O)C(N2CCCCC2)SC1=CC(=O)O (stereo not shown) [Example 3282, (Z)-3-Methyl-4-oxo-5N-piperidino-thiazolidin-2-ylidene-acetic acid] | 10.9 | – | – | 16 | 0.8799 | – | by far more increased with Furosemide than with 3282 | ≥ 2,250 mg/kg | ≥ 1,000 mg/kg | very favorable |
